Measurements from article PMC8667612 (Journal of medicinal chemistry, 2021).
Values joined by “and” are separate entries in the source; they are usually repeats but may differ in a detail not shown here. Identical values can stand only once.

Tests used:
N. fowleri CYP51 [1] = molecular target: T1, N. fowleri CYP51 (Naegleria fowleri, UniProt A0A6A5BCR7, E4K/I5A/S2A, form not given); format: biochemical; conditions: 0.5 μM P450, 60 s at 37 °C, sterol 3–50 μM
N. fowleri CYP51 [2] = molecular target: T1, N. fowleri CYP51; format: binding; conditions: Type I spectral response, ~2 μM P450
N. fowleri CYP51 [3] = molecular target: T1, N. fowleri CYP51
[4] = Blood–brain permeability assay, multiple oral doses; format: in vivo, BALB/c mice; conditions: mice, oral gavage 25 mg/kg twice a day for 5 days, samples 4 h after each administration
N. fowleri trophozoites = experiment: N. fowleri cellular growth inhibition assay; format: cell-based; conditions: Naegleria fowleri, 96 h, read-out: minimal inhibitory concentration (MIC)
[5] = cited from earlier work

| Structure (SMILES) | low- to high-spin state transition in the heme iron (N. fowleri CYP51 [2]) | concentration giving complete inhibition of N. fowleri CYP51 activity (N. fowleri CYP51 [3]) | other results |
| --- | --- | --- | --- |
| CC(C)=CCC[C@@H](C)[C@H]1CC[C@@]2(C)C3=C(CC[C@]12C)[C@@]1(C)CC[C@H](O)C(C)(C)[C@@H]1CC3 [lanosterol] | 70% | – | kcat (N. fowleri CYP51 [1]): 1.07 s⁻¹ |
| O=C(N[C@@H](Cn1ccnc1)c1ccc(-c2ccc(F)cc2)cc1F)c1ccc(-c2nnc(-c3ccccc3)o2)cc1 [VFV, (R)-N-(1-(3,4’-difluoro-[1,1’-biphenyl]-4-yl)-2-(1H-imidazol-1-yl)-ethyl)-4-(5-phenyl-1,3,4-oxadiazol-2-yl)benzamide] | – | 6.0 µM | – |
| O=C(N[C@@H](Cn1ccnc1)c1ccc(Cl)cc1Cl)c1ccc(-c2nnc(-c3ccc(F)c(F)c3)o2)cc1 [FF-VNI, (R)-N-(1-(2,4-dichlorophenyl)-2-(1H-imidazol-1-yl)-ethyl)-4-(5-(3,4-difluorophenyl)-1,3,4-oxadiazol-2-yl)-benzamide] | – | 6 µM | average concentration in the brain [4]: 3.5 ± 0.3 µM; MIC (N. fowleri trophozoites): 2.7 µM and 1.5 µg/mL; NOAEL [5]: > 200 mg/kg |
| C=C(CC[C@@H](C)[C@H]1CC[C@@]2(C)C3=C(CC[C@]12C)[C@@]1(C)CC[C@H](O)[C@@H](C)[C@@H]1CC3)C(C)C [obtusifoliol] | 90% | – | kcat (N. fowleri CYP51 [1]): 0.433 s⁻¹ |
| CC(C)=CCC[C@@H](C)[C@H]1CC[C@@]2(C)[C@@H]3CC[C@H]4C(C)(C)[C@@H](O)CC[C@@]45C[C@@]35CC[C@]12C [cycloartenol] | 25% | – | – |
| O=C(N[C@@H](Cn1ccnc1)c1c(F)cc(-c2ccc(F)cc2)cc1F)c1ccc(-c2nnc(-c3ccccc3)o2)cc1 [F-VFV, (R)-N-(2-(1H-imidazol-1-yl)-1-(3,4’,5-trifluoro-[1,1’-biphenyl]-4-yl)ethyl)-4-(5-phenyl-1,3,4-oxadiazol-2-yl)benzamide] | – | 3.0 µM | average concentration in the brain [4]: 2.2 ± 0.2 µM; MIC (N. fowleri trophozoites): 3.3 µM and 1.9 µg/mL; NOAEL [5]: > 200 mg/kg |
| CC[C@@H]([C@H](C)O)n1ncn(-c2ccc(N3CCN(c4ccc(OC[C@@H]5CO[C@@](Cn6cncn6)(c6ccc(F)cc6F)C5)cc4)CC3)cc2)c1=O [posaconazole, reference compound] | – | 2.0 µM | – |
| O=C(N[C@@H](Cn1ccnc1)c1ccc(Cl)cc1Cl)c1ccc(-c2nnc(-c3ccc(C(F)(F)F)c(F)c3)o2)cc1 [FCF3-VNI, (R)-N-(1-(2,4-dichlorophenyl)-2-(1H-imidazol-1-yl)ethyl)-4-(5-(3-fluoro-4-(trifluoromethyl)phenyl)-1,3,4-oxadiazol-2-yl)benzamide] | – | > 50 µM | – |
| CC(C)=CCC[C@@H](C)[C@H]1CC[C@@]2(C)C3=C(CC[C@]12C)[C@@]1(C)CC[C@H](O)[C@H](C)[C@@H]1CC3 [norlanosterol] | 94% | – | – |
| O=C(N[C@@H](Cn1ccnc1)c1ccc(Cl)cc1Cl)c1ccc(-c2nnc(-c3ccccc3)o2)cc1 [VNI, (R)-N-(1-(2,4-dichlorophenyl)-2-(1H-imidazol-1-yl)-ethyl)-4-(5-phenyl-1,3,4-oxadiazol-2-yl)benzamide] | – | 50 µM | – |
